# Columns and labels:
# [1] = tested on: trained sensory panel; assay: Sensory panel evaluation of MSG-IMP mixture combined with Formulas II-IV; assay type: in vivo; details: 0.01% MSG and 0.005% IMP; for effect on umami flavor of the MSG-IMP mixture: summary, no concentration stated
# Description: The MSG-inosine monophosphate (IMP) mixture (0.01% MSG and 0.005% IMP), an umami composition, was combined with Formulas II-IV at different concentrations and evaluated by a trained sensory panel.
# [2] = tested on: trained sensory panel; assay: Sensory panel evaluation of MSG (0.02%) combined with Formula II; assay type: in vivo
# Procedure: The flavor compositions of MSG (0.02%) combined with (2E,4E)-N-phenethylundeca-2,4-dien-8,10-diynamide (Formula II) at different concentrations were evaluated by a trained sensory panel using an intensity scale of 0 to 5, where 0=none, 1=minimal, 3=moderate, and 5=intense. Averaged sensory scores were reported in the following: […]
Compound,effect on umami flavor of the MSG-IMP mixture [1],Flavor Profile: effect on umami flavor of the MSG-IMP mixture ([1]; amide at 500 ppb),effect on umami flavor of MSG ([2]; summary over the concentrations tested),Flavor Profile ([2]; Formula II 0),"Flavor Intensity ([2]; Formula II 0, averaged sensory score, scale 0 to 5 (0=none, 1=minimal, 3=moderate, 5=intense))"
"C#CC#CCC/C=C/C=C/C(=O)NCC(C)CC (stereo not drawn) [Formula IV, (2E,4E)-N-(2-methylbutyl)undeca-2,4-dien-8,10-diynamide]",enhanced the umami flavor of the MSG-IMP mixture,,,,
"C#CC#CCC/C=C/C=C/C(=O)NCCc1ccccc1 [Formula II, (2E,4E)-N-phenethylundeca-2,4-dien-8,10-diynamide]",enhanced the umami flavor of the MSG-IMP mixture,strongest enhancement,enhanced the umami flavor of MSG,,
"N[C@@H](CCC(=O)O)C(=O)[O-].[Na+] [MSG, monosodium glutamate]",,,,umami,1.0

# Reference: patent US20110280812A1, “FLAVOR-ENHANCING AMIDE COMPOUNDS” (priority 2010, published 2011)
